Source: US8759482B2, “Kinetically efficient substrate for lipoic acid ligase” (Massachusetts Institute of Technology, priority 2009, dated 2014)

Experiments:
Lp1A [1] = molecular target: T1, Lp1A (Escherichia coli, UniProt P32099); details: Azide 7 probe; cited from earlier work
Lp1AW37A = Lp1AW37A (Escherichia coli, UniProt P32099, W38A); details: HEK cells, Lp1AW37A and 11-Br 5 min, QD605-HaloTag 5 min
Experimental: QD605 emission is shown in the top row. Merged GFP and DIC (differential interference contrast) images are shown in the bottom row. Negative controls are shown with ATP or Lp1A omitted. Scale bars, 10 μm.
HEK 293T cells were transfected with LAP2-GFP-LDLR plasmid using Lipofectamine 2000. After 24 h in growth media (Dulbecco's Modified Eagle Medium (DMEM) with 10% fetal bovine serum (FBS)) at 37° C., enzymatic ligation of 11-Br was performed in DPBS containing 10 μM Lp1A(W37A), 500 μM 11-Br, 1 mM ATP, 5 mM Mg(OAc)2 and 1% (w/v) BSA (Fraction V, EMD) as a blocking agent for 5 min at room temperature. Cells were then rinsed three times with DPBS followed by treatment with 50 nM HaloTag-QD60531 in DPBS containing 1% BSA for 5 min at room temperature. After another three rinses with DPBS, cells were imaged in the same buffer on a Zeiss Axio Observer.Z1 inverted epifluorescence microscope using a 40X oil-immersion lens. […] Fluorescence images were normalized to the same intensity ranges.

[2] = molecular target: T2, Escherichia coli lipoic acid ligase (Lp1A) (Escherichia coli, UniProt P32099); assay: Lp1A-catalyzed lipoylation kinetics (kcat, Km) by HPLC; type: biochemical; details: estimated, based on HPLC measurements
T2 sequence (P32099 1-338): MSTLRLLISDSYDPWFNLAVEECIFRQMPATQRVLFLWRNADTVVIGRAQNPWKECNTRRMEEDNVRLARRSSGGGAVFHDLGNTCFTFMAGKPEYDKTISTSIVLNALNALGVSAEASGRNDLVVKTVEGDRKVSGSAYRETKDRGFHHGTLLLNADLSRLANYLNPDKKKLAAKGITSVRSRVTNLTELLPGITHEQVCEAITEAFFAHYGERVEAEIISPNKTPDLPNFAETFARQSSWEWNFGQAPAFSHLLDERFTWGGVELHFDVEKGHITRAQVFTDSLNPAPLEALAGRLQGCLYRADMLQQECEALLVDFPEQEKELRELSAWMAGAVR
Experimental: Various concentrations of synthetic LAP2 peptide (not a fusion protein) were lipoylated with 50 nM Lp1A, 750 μM lipoic acid, and 3 mM ATP, and initial reaction rates were measured by HPLC. […] Measurements were performed in triplicate.
Using HPLC to quantify product formation, the kcat and Km values were measured for Lp1A-catalyzed lipoylation of a synthetic LAP2 peptide (without an attached fusion protein).
To measure the kcat and Km values for lipoylation, 50 nM Lp1A was combined with 750 μM lipoic acid, 2 mM ATP, and 5 mM magnesium acetate in DPBS. Varying concentrations of LAP2 (5.5, 11, 22, 44, 88, 176, or 352 μM) were used; 60 μL aliquots were removed from the 30° C. reactions at 5 min intervals, up to 20 min, and quenched with 180 mM EDTA (final concentration). HPLC was used to determine the amount of product in each aliquot, and kinetic parameters were extracted using the Michaelis-Menten equation as described previously.^13,28

Lp1A [3] = molecular target: T1, Lp1A; assay: Cell surface lipoylation of CFP-TM fusion constructs on mammalian cells; type: cell-based; details: HEK cells, CFP-TM fusions, 1 μM Lp1A, 10 min
Experimental: FIG. 8 depicts cell surface lipoylation of LAP4.3 vs. LAP4.3D. HeLa cells expressing either LAP4.3-CFP-TM or LAP4.3D-CFP-TM were lipoylated with 1 μM Lp1A for 10 minutes. Lipoylation was detected with Alexa568-conjugated anti-lipoic acid antibody.
However, expression levels of intracellular proteins are similar, whether fused to a LAP sequence or E2p. […] Scale bar, 10 μm. […] Single cell mean fluorescein/CFP intensity ratios were tabulated for >160 cells from >18 fields of view.
Second, the LAPs were compared in a cell surface lipoylation assay (FIG. 9). CFP-TM fusion constructs were expressed in human embryonic kidney 293 (HEK) cells, and lipoylation was carried out by purified Lp1A enzyme added to the media. After 10 min of labeling, lipoylated cell surface proteins were imaged using antilipoic acid antibody. […] To quantitatively compare the labeling efficiencies of all the LAP sequences, lipoylation signal (as measured by antibody staining intensity) was plotted against CFP signal for single cells.

Chain of Lp1AW37A (P32099 whole entry W38A): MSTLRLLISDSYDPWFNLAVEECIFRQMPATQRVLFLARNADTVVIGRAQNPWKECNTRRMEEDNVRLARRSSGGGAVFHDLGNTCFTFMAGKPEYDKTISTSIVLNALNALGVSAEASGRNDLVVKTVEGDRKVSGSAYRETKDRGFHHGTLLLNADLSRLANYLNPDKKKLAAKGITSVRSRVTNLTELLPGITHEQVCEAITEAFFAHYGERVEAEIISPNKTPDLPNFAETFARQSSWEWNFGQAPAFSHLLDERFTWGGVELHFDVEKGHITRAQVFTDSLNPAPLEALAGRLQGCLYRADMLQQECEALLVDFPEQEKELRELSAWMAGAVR

Sequence: DEVLVEIETDKAVLEVPGGEEE [LAP1]
- kcat for Azide 7 ligation (Lp1A [1]): 0.048 s⁻¹
- QD605 labeling at the cell surface (Lp1AW37A): undetectable
- Km [2]: > 200 µM
- cell surface lipoylation (antilipoic acid antibody imaging) (Lp1A [3]): labeling was not detected
